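How tested: cells in 96-well plates exposed to compound for 48 hours at five concentrations. TGI marks complete inhibition of growth.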
How the values were obtained:
Assay in all cases: growth of human tumour cells (NCI), 48 h
NCI/ADR-RES ovarian = system: NCI/ADR-RES ovarian
SF-295 CNS = system: SF-295 CNS
MDA-MB-435 = system: MDA-MB-435
OVCAR-4 ovarian = system: OVCAR-4 ovarian
UACC-62 melanoma = system: UACC-62 melanoma
T-47D breast = system: T-47D breast
ACHN renal = system: ACHN renal
SK-MEL-2 melanoma = system: SK-MEL-2 melanoma
NCI-H460 lung = system: NCI-H460 lung
MCF7 breast = system: MCF7 breast
HCT-15 colon = system: HCT-15 colon
OVCAR-5 ovarian = system: OVCAR-5 ovarian
LOX IMVI melanoma = system: LOX IMVI melanoma
786-0 renal = system: 786-0 renal
A549 NSCLC = system: A549 NSCLC
PC-3 prostate = system: PC-3 prostate
NCI-H23 lung = system: NCI-H23 lung
EKVX NSCLC = system: EKVX NSCLC
HCT-116 colon = system: HCT-116 colon
HT29 colon = system: HT29 colon
HOP-62 NSCLC = system: HOP-62 NSCLC
COLO 205 colon = system: COLO 205 colon
MOLT-4 leukemia = system: MOLT-4 leukemia
SK-MEL-5 melanoma = system: SK-MEL-5 melanoma
SN12C renal = system: SN12C renal
MDA-N = system: MDA-N
TK-10 renal = system: TK-10 renal
MDA-MB-231 breast = system: MDA-MB-231 breast
M14 melanoma = system: M14 melanoma
MALME-3M melanoma = system: MALME-3M melanoma
HCC-2998 colon = system: HCC-2998 colon
SF-268 CNS = system: SF-268 CNS
UACC-257 melanoma = system: UACC-257 melanoma
RPMI-8226 leukemia = system: RPMI-8226 leukemia
DU-145 prostate = system: DU-145 prostate
OVCAR-3 ovarian = system: OVCAR-3 ovarian
SK-OV-3 ovarian = system: SK-OV-3 ovarian
NCI-H226 lung = system: NCI-H226 lung
SNB-19 CNS = system: SNB-19 CNS
SR leukemia = system: SR leukemia
HS 578T breast = system: HS 578T breast
CCRF-CEM leukemia = system: CCRF-CEM leukemia
NCI-H522 lung = system: NCI-H522 lung
CAKI-1 renal = system: CAKI-1 renal
UO-31 renal = system: UO-31 renal
OVCAR-8 ovarian = system: OVCAR-8 ovarian
SK-MEL-28 melanoma = system: SK-MEL-28 melanoma
SW-620 colon = system: SW-620 colon
HOP-92 NSCLC = system: HOP-92 NSCLC
A498 renal = system: A498 renal
SF-539 CNS = system: SF-539 CNS
KM12 colon = system: KM12 colon
IGROV1 ovarian = system: IGROV1 ovarian
HL-60(TB) leukemia = system: HL-60(TB) leukemia
RXF 393 renal = system: RXF 393 renal
U251 CNS = system: U251 CNS
BT-549 breast = system: BT-549 breast
SNB-75 CNS = system: SNB-75 CNS
K-562 leukemia = system: K-562 leukemia

C=C1c2[nH]c3ccccc3c2C2C(CC)C1CCN2C (stereo not given)
TGI (NCI/ADR-RES ovarian): > 100 µM
TGI (SF-295 CNS): > 100 µM
TGI (MDA-MB-435): > 100 µM
TGI (OVCAR-4 ovarian): > 100 µM
TGI (UACC-62 melanoma): > 100 µM
TGI (T-47D breast): > 100 µM
TGI (ACHN renal): > 100 µM
TGI (SK-MEL-2 melanoma): > 100 µM
TGI (NCI-H460 lung): > 100 µM
TGI (MCF7 breast): > 100 µM
TGI (HCT-15 colon): > 100 µM
TGI (OVCAR-5 ovarian): > 100 µM
TGI (LOX IMVI melanoma): > 100 µM
TGI (786-0 renal): > 100 µM
TGI (A549 NSCLC): > 100 µM
TGI (PC-3 prostate): > 100 µM
TGI (NCI-H23 lung): > 100 µM
TGI (EKVX NSCLC): > 100 µM
TGI (HCT-116 colon): > 100 µM
TGI (HT29 colon): > 100 µM
TGI (HOP-62 NSCLC): > 100 µM
TGI (COLO 205 colon): 58.9 µM
TGI (MOLT-4 leukemia): > 100 µM
TGI (SK-MEL-5 melanoma): > 100 µM
TGI (SN12C renal): > 100 µM
TGI (MDA-N): > 100 µM
TGI (TK-10 renal): > 100 µM
TGI (MDA-MB-231 breast): > 100 µM
TGI (M14 melanoma): 67.6 µM
TGI (MALME-3M melanoma): 56.5 µM
TGI (HCC-2998 colon): 37.8 µM
TGI (SF-268 CNS): > 100 µM
TGI (UACC-257 melanoma): 95.6 µM
TGI (RPMI-8226 leukemia): 88.8 µM
TGI (DU-145 prostate): > 100 µM
TGI (OVCAR-3 ovarian): > 100 µM
TGI (SK-OV-3 ovarian): > 100 µM
TGI (NCI-H226 lung): > 100 µM
TGI (SNB-19 CNS): > 100 µM
TGI (SR leukemia): 74.8 µM
TGI (HS 578T breast): > 100 µM
TGI (CCRF-CEM leukemia): > 100 µM
TGI (NCI-H522 lung): > 100 µM
TGI (CAKI-1 renal): > 100 µM
TGI (UO-31 renal): > 100 µM
TGI (OVCAR-8 ovarian): > 100 µM
TGI (SK-MEL-28 melanoma): 77.2 µM
TGI (SW-620 colon): > 100 µM
TGI (HOP-92 NSCLC): > 100 µM
TGI (A498 renal): 70 µM
TGI (SF-539 CNS): > 100 µM
TGI (KM12 colon): > 100 µM
TGI (IGROV1 ovarian): > 100 µM
TGI (HL-60(TB) leukemia): > 100 µM
TGI (RXF 393 renal): > 100 µM
TGI (U251 CNS): > 100 µM
TGI (BT-549 breast): > 100 µM

O=C(Nc1c(C(F)(F)F)cc(-c2ccccc2)[nH]c1=O)N1CCOCC1
TGI (SNB-75 CNS): > 100 µM
TGI (NCI/ADR-RES ovarian): > 100 µM
TGI (SF-295 CNS): > 100 µM
TGI (MDA-MB-435): > 100 µM
TGI (OVCAR-4 ovarian): > 100 µM
TGI (UACC-62 melanoma): > 100 µM
TGI (T-47D breast): > 100 µM
TGI (ACHN renal): > 100 µM
TGI (SK-MEL-2 melanoma): > 100 µM
TGI (NCI-H460 lung): > 100 µM
TGI (MCF7 breast): > 100 µM
TGI (HCT-15 colon): > 100 µM
TGI (OVCAR-5 ovarian): > 100 µM
TGI (LOX IMVI melanoma): > 100 µM
TGI (786-0 renal): > 100 µM
TGI (A549 NSCLC): > 100 µM
TGI (PC-3 prostate): > 100 µM
TGI (NCI-H23 lung): > 100 µM
TGI (EKVX NSCLC): > 100 µM
TGI (HCT-116 colon): > 100 µM
TGI (HT29 colon): > 100 µM
TGI (HOP-62 NSCLC): > 100 µM
TGI (COLO 205 colon): > 100 µM
TGI (MOLT-4 leukemia): > 100 µM
TGI (SK-MEL-5 melanoma): > 100 µM
TGI (SN12C renal): > 100 µM
TGI (MDA-N): > 100 µM
TGI (TK-10 renal): > 100 µM
TGI (MDA-MB-231 breast): > 100 µM
TGI (M14 melanoma): > 100 µM
TGI (MALME-3M melanoma): > 100 µM
TGI (HCC-2998 colon): > 100 µM
TGI (SF-268 CNS): > 100 µM
TGI (UACC-257 melanoma): > 100 µM
TGI (RPMI-8226 leukemia): > 100 µM
TGI (DU-145 prostate): > 100 µM
TGI (OVCAR-3 ovarian): > 100 µM
TGI (SK-OV-3 ovarian): > 100 µM
TGI (NCI-H226 lung): > 100 µM
TGI (SNB-19 CNS): > 100 µM
TGI (SR leukemia): > 100 µM
TGI (HS 578T breast): > 100 µM
TGI (CCRF-CEM leukemia): > 100 µM
TGI (NCI-H522 lung): > 100 µM
TGI (CAKI-1 renal): > 100 µM
TGI (K-562 leukemia): > 100 µM
TGI (UO-31 renal): > 100 µM
TGI (OVCAR-8 ovarian): > 100 µM
TGI (SK-MEL-28 melanoma): > 100 µM
TGI (SW-620 colon): > 100 µM
TGI (HOP-92 NSCLC): > 100 µM
TGI (A498 renal): > 100 µM
TGI (KM12 colon): > 100 µM
TGI (IGROV1 ovarian): > 100 µM
TGI (HL-60(TB) leukemia): 79.5 µM
TGI (RXF 393 renal): > 100 µM
TGI (U251 CNS): > 100 µM
TGI (BT-549 breast): > 100 µM

Reference: PubChem BioAssay (NCI)
